This is an account of results in ChEMBL document CHEMBL5120817, “Quinone Derivatives as Promising Anti-Helicobacter pylori Agents from Aerial Parts of Mitracarpus hirtus” (2022).

The MIC is the smallest concentration in the dilution series that meets the test's criterion for growth inhibition.

Holding throughout (assay type): functional
Assay [1] has as its system Helicobacter pylori. In words: Antibacterial activity against multidrug resistant Helicobacter pylori G27 assessed as bacterial growth inhibition incubated for 3 days by broth microdilution method. To be noted: G27, 72 h, time 3 day. (In general: Broth dilution looks for growth in wells or tubes with falling amounts of substance.)
In assay [2] the test system is Helicobacter pylori. Kind of assay: Antibacterial activity against multidrug resistant Helicobacter pylori HP159 assessed as bacterial growth inhibition incubated for 3 days by broth microdilution method. The settings on record: HP159, 72 h, time 3 day.
The subject of assay [3] is Helicobacter pylori. In words: Antibacterial activity against multidrug resistant Helicobacter pylori JRES00015 assessed as bacterial growth inhibition incubated for 3 days by broth microdilution method. To be noted: JRES00015, 72 h, time 3 day.
Assay [4] has as its system Helicobacter pylori. In words: Potency index, ratio of metronidazole MIC to test compound MIC for antibacterial activity against multidrug resistant Helicobacter pylori JRES00015.
The test system of assay [5] is Helicobacter pylori. Kind of assay: Antibiofilm activity against Helicobacter pylori G27 assessed as reduction in preformed bacterial biofilm at 4 times MIC by crystal violet staining based assay. Also noted: scale not given: the % may be the effect or the level left.
The test system of assay [6] is Helicobacter pylori. Kind of assay: Antibiofilm activity against Helicobacter pylori G27 assessed as reduction in viable bacteria within biofilms at 0.25 ug/ml incubated for 20 hrs by alamar blue assay. The settings on record: dose 0.25 µg/ml. On the technique in general: The colour change of resazurin is a common sign of viable cells or microbes.
Assay [7] has as its system Helicobacter pylori. In words: Antibiofilm activity against Helicobacter pylori G27 assessed as reduction in viable cells count at 4 times MIC.

≈ marks a conversion by molar mass, not a printed value. Bounds are passed on as bounds.

As for `Cc1ccc2c(c1)C(=O)c1cc(O)ccc1C2=O`, the minimum inhibitory concentration (MIC) in assay [1] came to 8 µg/mL (≈ 33.6 µM); in assay [2], 8 µg/mL (≈ 33.6 µM); in assay [3] it was 16 µg/mL (≈ 67.2 µM).
As to `O=C1c2ccccc2C(=O)c2cnccc21`, the minimal inhibitory concentration (MIC) in assay [1] stood at 0.125 µg/mL (≈ 0.598 µM); in assay [2], 0.0625 µg/mL (≈ 0.299 µM); in assay [3], 0.0625 µg/mL (≈ 0.299 µM). The Ratio in assay [4] stood at 512. The Activity amounted to 51% in assay [5], 100% in assay [6] and 4.65 log10CFU/ml in assay [7].
`O=C1c2ccccc2C(=O)c2cc(CO)ccc21`: the MIC in assay [1], in assay [2] and in assay [3] was 8 µg/mL (≈ 33.6 µM) in each case.
As for `O=C(O)c1ccc2c(c1)C(=O)c1ccccc1C2=O`, the MIC in assay [1] was 0.5 µg/mL (≈ 1.98 µM); in assay [2], 1 µg/mL (≈ 3.96 µM); in assay [3], 0.25 µg/mL (≈ 0.991 µM).
On to `COc1cc2c(cc1O)C(=O)c1cc(C)ccc1C2=O`, for which the minimal inhibitory concentration (MIC) amounted to 16 µg/mL (≈ 59.6 µM) in assay [1], 8 µg/mL (≈ 29.8 µM) in assay [2] and 16 µg/mL (≈ 59.6 µM) in assay [3].
`Cc1ccc2c(c1)C(=O)c1cc(O)c(O)cc1C2=O`: the MIC in assay [1], in assay [2] and in assay [3] was 32 µg/mL (≈ 126 µM) throughout.
For the molecule `CO[C@@H]1Cc2c(c(O[C@@H]3O[C@H](C)[C@@H](O)[C@H](O)[C@H]3O)c3ccccc3c2O[C@@H]2O[C@H](CO)[C@@H](O)[C@H](O)[C@H]2O)CO1`, the MIC in assay [1] was determined as 64 µg/mL (≈ 115 µM); in assay [2], 64 µg/mL (≈ 115 µM); in assay [3], 32 µg/mL (≈ 57.7 µM).
For `OC[C@H]1O[C@@H](Oc2c3c(c(O[C@@H]4O[C@H](CO)[C@@H](O)[C@H](O)[C@H]4O)c4ccccc24)CC(O)OC3)[C@H](O)[C@@H](O)[C@@H]1O` (stereo not given in full), the minimal inhibitory concentration (MIC) in assay [1], in assay [2] and in assay [3] was more than 64 µg/mL in each case.
In the case of `O=C1C2=C(C(=O)c3ccccc31)C(O)OCC2` (stereo not given), the figures for the MIC in assay [1], in assay [2] and in assay [3] were 0.125 µg/mL (≈ 0.543 µM), 0.125 µg/mL (≈ 0.543 µM) and 0.0625 µg/mL (≈ 0.271 µM), respectively. In assay [4], the Ratio came out at 512.
Take `C/C(=C/Cc1c(C(=O)O)c(O[C@@H]2O[C@H](CO)[C@@H](O)[C@H](O)[C@H]2O)c2ccccc2c1O[C@@H]1O[C@H](CO)[C@@H](O)[C@H](O)[C@H]1O)CO`: the MIC in assay [1], in assay [2] and in assay [3] was more than 64 µg/mL in each case.
As for `CO[C@H]1Cc2c(c(O[C@@H]3O[C@H](CO)[C@@H](O)[C@H](O)[C@H]3O)c3ccccc3c2O[C@@H]2O[C@H](CO)[C@@H](O)[C@H](O)[C@H]2O)CO1`, the minimal inhibitory concentration (MIC) in assay [1], in assay [2] and in assay [3] was more than 64 µg/mL throughout.
Regarding `CO[C@H]1OCc2c(c(O[C@@H]3O[C@H](CO)[C@@H](O)[C@H](O)[C@H]3O)c3ccccc3c2O[C@@H]2O[C@H](C)[C@@H](O)[C@H](O)[C@H]2O)[C@@H]1O`, the minimal inhibitory concentration (MIC) was found to be 64 µg/mL (≈ 112 µM) in assay [1], 64 µg/mL (≈ 112 µM) in assay [2] and 32 µg/mL (≈ 56.1 µM) in assay [3].
Regarding `OC[C@H]1O[C@@H](Oc2c3c(c(O[C@@H]4O[C@H](CO)[C@@H](O)[C@H](O)[C@H]4O)c4ccccc24)COC=C3)[C@H](O)[C@@H](O)[C@@H]1O`, the minimal inhibitory concentration (MIC) in assay [1], in assay [2] and in assay [3] was 32 µg/mL (≈ 59.4 µM) throughout.
Take `COC(=O)c1ccc2c(c1)C(=O)c1cc(O)ccc1C2=O`: the minimal inhibitory concentration (MIC) worked out at 2 µg/mL (≈ 7.09 µM) in assay [1], 4 µg/mL (≈ 14.2 µM) in assay [2] and 2 µg/mL (≈ 7.09 µM) in assay [3].
In the case of `CO[C@@H]1Cc2c(c(O[C@@H]3O[C@H](CO)[C@@H](O)[C@H](O)[C@H]3O)c3ccccc3c2O[C@@H]2O[C@H](CO)[C@@H](O)[C@H](O)[C@H]2O)CO1`, the MIC in assay [1], in assay [2] and in assay [3] was more than 64 µg/mL each time.
As to `C[C@H]1O[C@@H](Oc2c3c(c(O[C@@H]4O[C@H](CO)[C@@H](O)[C@H](O)[C@H]4O)c4ccccc24)C=COC3)[C@H](O)[C@@H](O)[C@@H]1O`, the minimum inhibitory concentration (MIC) in assay [1], in assay [2] and in assay [3] was 32 µg/mL (≈ 61.2 µM) in each case.
Consider `CO[C@H]1Cc2c(c(O[C@@H]3O[C@H](C)[C@@H](O)[C@H](O)[C@H]3O)c3ccccc3c2O[C@@H]2O[C@H](CO)[C@@H](O)[C@H](O)[C@H]2O)CO1`, for which the minimal inhibitory concentration (MIC) in assay [1], in assay [2] and in assay [3] was more than 64 µg/mL in each case.
On to `COc1ccc2c(c1)C(=O)c1cc(CO)ccc1C2=O`, for which the minimal inhibitory concentration (MIC) in assay [1], in assay [2] and in assay [3] was 8 µg/mL (≈ 29.8 µM) in each case.
For `CC[C@H]1OC(=O)[C@H](C)[C@@H](O[C@H]2C[C@@](C)(OC)[C@@H](O)[C@H](C)O2)[C@H](C)[C@@H](O[C@@H]2O[C@H](C)C[C@H](N(C)C)[C@H]2O)[C@](C)(OC)C[C@@H](C)C(=O)[C@H](C)[C@@H](O)[C@]1(C)O` [CLARITHROMYCIN], the MIC in assay [1] stood at 0.008 µg/mL (≈ 0.0107 µM); in assay [2] it was 2 µg/mL (≈ 2.67 µM); in assay [3], 2 µg/mL (≈ 2.67 µM).
Consider `C[C@H]1COc2c(N3CCN(C)CC3)c(F)cc3c(=O)c(C(=O)O)cn1c23.C[C@H]1COc2c(N3CCN(C)CC3)c(F)cc3c(=O)c(C(=O)O)cn1c23.O` [LEVOFLOXACIN], for which the MIC in assay [1] came to 0.25 µg/mL; in assay [2], 8 µg/mL; in assay [3] it was 16 µg/mL.
Regarding `Cc1ncc([N+](=O)[O-])n1CCO` [METRONIDAZOLE], the MIC was 2 µg/mL (≈ 11.7 µM) in assay [1], 16 µg/mL (≈ 93.5 µM) in assay [2] and 32 µg/mL (≈ 187 µM) in assay [3]. The results for the Activity in assay [5] and in assay [7] were 33% and 0.76 log10CFU/ml, respectively.
